# Experimental data taken from US5225607A, “Insecticidal ethers” (Imperial Chemical Industries PLC, priority 1985, dated 1993).
# What was measured:
# Type in all cases: in vivo
# Tetranychus urticae = test: Insecticidal/acaricidal test, Tetranychus urticae (spider mites - adult), contact; conditions: 72 h, French bean leaf, 3 days, read-out: grading of mortality, TU
# Method: (§1) The activity of the Product was determined using a variety of insect and acarine pests. The Product was used in the form of liquid preparations containing 500, 250 or 100 parts per million (ppm) by weight of the Product. The preparations were made by dissolving the Product in acetone and diluting the solutions with water containing 0.01% by weight of a wetting agent sold under the trade name "LISSAPOL" NX until the liquid preparations contained the required concentratio of the Product. "Lissapol" is a Registered Trade Mark.
# (§2) The test procedure adopted with regard to each pest was basically the same and comprised supporting a number of the pests on a medium which was usually a host plant or a foodstuff on which the pests feed, and treating either or both the pests and the medium with the preparations. The mortality of the pests was then assessed at periods usually varying from one to three days after the treatment.
# (§3) The results of the tests are given in Table IV for each of the Products, at the rate in parts per million given in the second column as a grading of mortality designated as A, B or C wherein A indicates 80-100% mortality or knockdown (70-100% in the case of Spodoptera exigua), B indicates 50-79% mortality or knockdown (50-69% in the case of Spodoptera exigua) and C indicates less than 50% mortality or knockdown.
# (§4) In Table IV the pest organism used is designated by a letter code and the pest species, the support medium or food, and the type and duration of test is given in Table III.
# Myzus persicae = test: Insecticidal test, Myzus persicae (aphids), contact; conditions: 72 h, Chinese Cabbage leaf, 3 days, read-out: grading of mortality, MP
# Method: as §1, §2, §3, §4
# Nilaparvata lugens = test: Insecticidal test, Nilaparvata lugens (brown planthopper), contact; conditions: 72 h, Cabbage leaf, 3 days, read-out: grading of mortality, NL
# Method: as §1, §2, §3, §4
# Musca domestica [1] = test: Knockdown test, Musca domestica (houseflies - adults); conditions: cotton wool/sugar, 4 hours, read-out: grading of knockdown, MD/KD
# Method: as §1, §2
# In the case of the species Musca domestica (housefly), additional tests to determine the knockdown effect of the compounds were performed.
# as §3, §4
# Musca domestica [2] = test: Insecticidal test, Musca domestica (houseflies - adults), contact; conditions: 24 h, cotton wool/sugar, 1 day, read-out: grading of mortality, MD
# Method: as §1, §2, §3, §4
# Blattella germanica = test: Insecticidal test, Blattella germanica (cockroach nymphs), residual; conditions: 72 h, plastic pot, 3 days, read-out: grading of mortality, BG
# Method: as §1, §2, §3, §4
# Heliothis virescens = test: whole plant or invertebrate; conditions: in Gossypium hirsutum, 72 h, read-out: grading of mortality, HV
# Method: as §1, §2, §3, §4
# Diabrotica balteata = test: Insecticidal test, Diabrotica balteata (rootworm larvae), residual; conditions: 72 h, filter paper/maize seed, 3 days, read-out: grading of mortality, DB
# Method: as §1, §2, §3, §4
compound,measurement,setting,value
"CCOc1ccc(C(F)(COCc2cccc(-c3ccccc3)c2C)C(F)(F)F)cc1 (stereo not drawn) [Compound 80, 1,1,1,2-Tetrafluoro-2-(4-ethoxyphenyl)-3-(2-methyl-3-phenylbenzyloxy)propane]",mortality at 500 ppm,Tetranychus urticae,< 50%
same,mortality at 500 ppm,Myzus persicae,80 to 100%
same,mortality at 500 ppm,Nilaparvata lugens,80 to 100%
same,pest or weed control at 500 ppm,Musca domestica [1],80 to 100%
same,mortality at 500 ppm,Musca domestica [2],80 to 100%
same,mortality at 500 ppm,Blattella germanica,80 to 100%
same,mortality at 500 ppm,Heliothis virescens,< 50%
same,mortality at 500 ppm,Diabrotica balteata,80 to 100%
"COc1ccc(C(COCc2ccc(F)c(Oc3ccccc3)c2)C(F)(F)F)cc1 (stereo not drawn) [Compound 29, 1,1,1-Trifluoro-2-(4-methoxyphenyl)-3-(3-phenoxy-4-fluorobenzyloxy)propane]",mortality at 100 ppm,Tetranychus urticae,< 50%
same,mortality at 100 ppm,Myzus persicae,80 to 100%
same,mortality at 100 ppm,Nilaparvata lugens,80 to 100%
same,pest or weed control at 100 ppm,Musca domestica [1],80 to 100%
same,mortality at 100 ppm,Musca domestica [2],80 to 100%
same,mortality at 100 ppm,Blattella germanica,80 to 100%
same,mortality at 100 ppm,Heliothis virescens,80 to 100%
same,mortality at 100 ppm,Diabrotica balteata,80 to 100%
"Fc1ccc(COC=C(c2ccc(Cl)cc2)C(F)(F)F)cc1Oc1ccccc1 [Compound 458, 1,1,1-trifluoro-2-(4-chlorophenyl)-3-(3-phenoxy-4-fluorobenzyloxy)prop-2-ene]",mortality at 500 ppm,Tetranychus urticae,< 50%
same,mortality at 500 ppm,Myzus persicae,< 50%
same,mortality at 500 ppm,Nilaparvata lugens,80 to 100%
same,pest or weed control at 500 ppm,Musca domestica [1],80 to 100%
same,mortality at 500 ppm,Musca domestica [2],80 to 100%
same,mortality at 500 ppm,Blattella germanica,50 to 79%
same,mortality at 500 ppm,Heliothis virescens,80 to 100%
same,mortality at 500 ppm,Diabrotica balteata,80 to 100%
"CCOc1ccc(C(O)(COCc2cccc(Oc3ccccc3)c2)C(F)(F)F)cc1 (stereo not drawn) [Compound 112, 1,1,1-trifluoro-2-(4-ethoxyphenyl)-3-(3-phenoxybenzyloxy)propan-2-ol]",mortality at 250 ppm,Tetranychus urticae,< 50%
same,mortality at 250 ppm,Myzus persicae,< 50%
same,mortality at 250 ppm,Nilaparvata lugens,< 50%
same,pest or weed control at 250 ppm,Musca domestica [1],50 to 79%
same,mortality at 250 ppm,Musca domestica [2],< 50%
same,mortality at 250 ppm,Blattella germanica,< 50%
same,mortality at 250 ppm,Heliothis virescens,< 50%
same,mortality at 250 ppm,Diabrotica balteata,80 to 100%
"CCOc1ccc(C(O)(COCc2cccc(-c3ccccc3)c2C)C(F)(F)F)cc1 (stereo not drawn) [Compound 142, 1,1,1-Trifluoro-2-(4-ethoxyphenyl)-3-(2-methyl-3-phenylbenzyloxy)propan-2-ol]",mortality at 500 ppm,Tetranychus urticae,80 to 100%
same,mortality at 500 ppm,Myzus persicae,< 50%
same,mortality at 500 ppm,Nilaparvata lugens,< 50%
same,pest or weed control at 500 ppm,Musca domestica [1],< 50%
same,mortality at 500 ppm,Musca domestica [2],< 50%
same,mortality at 500 ppm,Blattella germanica,< 50%
same,mortality at 500 ppm,Heliothis virescens,80 to 100%
same,mortality at 500 ppm,Diabrotica balteata,< 50%
"CCCc1ccc(C(Cl)(COCc2ccc(F)c(Oc3ccccc3)c2)C(F)(F)F)cc1 (stereo not drawn) [Compound 53, 1,1,1-Trifluoro-2-chloro-2-(4-n-propylphenyl)-3-(3-phenoxy-4-fluorobenzyloxy)propane]",mortality at 500 ppm,Tetranychus urticae,80 to 100%
same,mortality at 500 ppm,Myzus persicae,80 to 100%
same,mortality at 500 ppm,Nilaparvata lugens,80 to 100%
same,pest or weed control at 500 ppm,Musca domestica [1],80 to 100%
same,mortality at 500 ppm,Musca domestica [2],80 to 100%
same,mortality at 500 ppm,Blattella germanica,80 to 100%
same,mortality at 500 ppm,Heliothis virescens,80 to 100%
same,mortality at 500 ppm,Diabrotica balteata,80 to 100%
"CCOc1ccc(C(Cl)(COCc2ccc(F)c(Oc3ccc(Cl)cc3)c2)C(F)(F)F)cc1 (stereo not drawn) [Compound 44, 1,1,1-Trifluoro-2-chloro-2-(4-ethoxyphenyl)-3-(3-(4-chlorophenoxy)-4-fluorobenzyloxy)propane]",mortality at 500 ppm,Tetranychus urticae,< 50%
same,mortality at 500 ppm,Myzus persicae,80 to 100%
same,mortality at 500 ppm,Nilaparvata lugens,80 to 100%
same,pest or weed control at 500 ppm,Musca domestica [1],80 to 100%
same,mortality at 500 ppm,Musca domestica [2],80 to 100%
same,mortality at 500 ppm,Blattella germanica,80 to 100%
same,mortality at 500 ppm,Heliothis virescens,80 to 100%
same,mortality at 500 ppm,Diabrotica balteata,50 to 79%
"OC(COCc1ccc(F)c(Oc2ccccc2)c1)(c1ccc2c(c1)CCC2)C(F)(F)F (stereo not drawn) [Compound 124, 1,1,1-Trifluoro-2-(5-indanyl)-3-(3-phenoxy-4-fluorobenzyloxy)propan-2-ol]",mortality at 500 ppm,Tetranychus urticae,80 to 100%
same,mortality at 500 ppm,Myzus persicae,< 50%
same,mortality at 500 ppm,Nilaparvata lugens,< 50%
same,pest or weed control at 500 ppm,Musca domestica [1],< 50%
same,mortality at 500 ppm,Musca domestica [2],< 50%
same,mortality at 500 ppm,Blattella germanica,< 50%
same,mortality at 500 ppm,Heliothis virescens,< 50%
same,mortality at 500 ppm,Diabrotica balteata,< 50%
"FC(F)(F)Oc1ccc(C(COCc2cccc(Oc3ccc(Cl)cc3)c2)C(F)(F)F)cc1 (stereo not drawn) [Compound 26, 1,1,1-Trifluoro-2-(4-trifluoromethoxyphenyl)-3-(3-(4-chlorophenoxy)benzyloxy)propane]",mortality at 100 ppm,Tetranychus urticae,80 to 100%
same,mortality at 100 ppm,Myzus persicae,50 to 79%
same,mortality at 100 ppm,Nilaparvata lugens,80 to 100%
same,pest or weed control at 100 ppm,Musca domestica [1],80 to 100%
same,mortality at 100 ppm,Musca domestica [2],80 to 100%
same,mortality at 100 ppm,Blattella germanica,80 to 100%
same,mortality at 100 ppm,Heliothis virescens,80 to 100%
same,mortality at 100 ppm,Diabrotica balteata,80 to 100%
"CCOc1ccc(C(COCc2c(F)c(F)c(C)c(F)c2F)C(F)(F)F)cc1 (stereo not drawn) [Compound 2, 1,1,1-Trifluoro-2-(4-ethoxyphenyl)-3-(4-methyl-2,3,5,6-tetrafluorobenzyloxy)propane]",mortality at 500 ppm,Tetranychus urticae,< 50%
same,mortality at 500 ppm,Myzus persicae,50 to 79%
same,mortality at 500 ppm,Nilaparvata lugens,80 to 100%
same,pest or weed control at 500 ppm,Musca domestica [1],< 50%
same,mortality at 500 ppm,Musca domestica [2],50 to 79%
same,mortality at 500 ppm,Blattella germanica,80 to 100%
same,mortality at 500 ppm,Heliothis virescens,< 50%
same,mortality at 500 ppm,Diabrotica balteata,80 to 100%
"CCOc1ccc(C(COCc2ccc(F)c(Oc3ccccc3)c2)C(F)(F)F)cc1 (stereo not drawn) [Compound 33, 1,1,1-Trifluoro-2-(4-ethoxyphenyl)-3-(3-phenoxy-4-fluorobenzyloxy)propane]",mortality at 500 ppm,Tetranychus urticae,80 to 100%
same,mortality at 500 ppm,Myzus persicae,80 to 100%
same,mortality at 500 ppm,Nilaparvata lugens,80 to 100%
same,pest or weed control at 500 ppm,Musca domestica [1],80 to 100%
same,mortality at 500 ppm,Musca domestica [2],80 to 100%
same,mortality at 500 ppm,Blattella germanica,80 to 100%
same,mortality at 500 ppm,Heliothis virescens,80 to 100%
same,mortality at 500 ppm,Diabrotica balteata,80 to 100%
"CCOc1ccc(C(COCc2cccc(Oc3ccc(Br)cc3)c2)C(F)(F)F)cc1 (stereo not drawn) [Compound 9, 1,1,1-Trifluoro-2-(4-ethoxyphenyl)-3-(3-(4-bromophenoxy)benzyloxy)propane]",mortality at 250 ppm,Tetranychus urticae,50 to 79%
same,mortality at 250 ppm,Myzus persicae,< 50%
same,mortality at 250 ppm,Nilaparvata lugens,< 50%
same,pest or weed control at 250 ppm,Musca domestica [1],80 to 100%
same,mortality at 250 ppm,Musca domestica [2],80 to 100%
same,mortality at 250 ppm,Blattella germanica,80 to 100%
same,mortality at 250 ppm,Heliothis virescens,80 to 100%
same,mortality at 250 ppm,Diabrotica balteata,80 to 100%
"CCOc1ccc(C(Cl)(COCc2cccc(Oc3ccc(Cl)cc3)c2)C(F)(F)F)cc1 (stereo not drawn) [Compound 42, 1,1,1-Trifluoro-2-chloro-2-(4-ethoxyphenyl)-3-(3-(4-chlorophenoxy)benzyloxy)propane]",mortality at 250 ppm,Tetranychus urticae,< 50%
same,mortality at 250 ppm,Myzus persicae,80 to 100%
same,mortality at 250 ppm,Nilaparvata lugens,80 to 100%
same,pest or weed control at 250 ppm,Musca domestica [1],80 to 100%
same,mortality at 250 ppm,Musca domestica [2],80 to 100%
same,mortality at 250 ppm,Blattella germanica,80 to 100%
same,mortality at 250 ppm,Heliothis virescens,80 to 100%
same,mortality at 250 ppm,Diabrotica balteata,50 to 79%
"CCOc1ccc(C(COCc2ccc(F)c(Oc3ccc(Br)cc3)c2)C(F)(F)F)cc1 (stereo not drawn) [Compound 6, 1,1,1-Trifluoro-2-(4-ethoxyphenyl)-3-(3-(4-bromophenoxy)-4-fluorobenzyloxy)propane]",mortality at 500 ppm,Tetranychus urticae,80 to 100%
same,mortality at 500 ppm,Myzus persicae,80 to 100%
same,mortality at 500 ppm,Nilaparvata lugens,80 to 100%
same,pest or weed control at 500 ppm,Musca domestica [1],80 to 100%
same,mortality at 500 ppm,Musca domestica [2],80 to 100%
same,mortality at 500 ppm,Blattella germanica,80 to 100%
same,mortality at 500 ppm,Heliothis virescens,80 to 100%
same,mortality at 500 ppm,Diabrotica balteata,80 to 100%
"CCOc1ccc(C(O)(COCc2ccc(F)c(Oc3ccc(Br)cc3)c2)C(F)(F)F)cc1 (stereo not drawn) [Compound 116, 1,1,1-Trifluoro-2-(4-ethoxyphenyl)-3-(3-(4-bromophenoxy)-4-fluorobenzyloxy)propan-2-ol]",mortality at 500 ppm,Tetranychus urticae,80 to 100%
same,mortality at 500 ppm,Myzus persicae,< 50%
same,mortality at 500 ppm,Nilaparvata lugens,< 50%
same,pest or weed control at 500 ppm,Musca domestica [1],50 to 79%
same,mortality at 500 ppm,Musca domestica [2],50 to 79%
same,mortality at 500 ppm,Blattella germanica,< 50%
same,mortality at 500 ppm,Diabrotica balteata,< 50%
Fc1ccc(COCC(c2ccc(Cl)cc2)C(F)(F)F)cc1Oc1ccccc1 (stereo not drawn) [Compound 15],mortality at 500 ppm,Tetranychus urticae,80 to 100%
same,mortality at 500 ppm,Myzus persicae,80 to 100%
same,mortality at 500 ppm,Nilaparvata lugens,80 to 100%
same,pest or weed control at 500 ppm,Musca domestica [1],80 to 100%
same,mortality at 500 ppm,Musca domestica [2],80 to 100%
same,mortality at 500 ppm,Blattella germanica,80 to 100%
same,mortality at 500 ppm,Diabrotica balteata,80 to 100%
